Measurements: patent US9498483B2, “2,3,5-trisubstituted thiophene compounds and uses thereof” (priority 2010, dated 2016)

What was measured:
[1] = test system: HCV replicon I389luc-ubi-neo/NS3-3′/ET in ET (Huh-lucubineo-ET) cells; test: Replicon assay (Biological Example 2), luciferase readout; type: cell-based; settings: Hepatitis C virus
In short: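 EC50 values come from Hill fits of % inhibition of replicon-driven firefly luciferase, relative to no-compound wells. Compounds were serially diluted (10 points, 3-fold, 0.1 nM–50 μM final, 0.5% DMSO) onto ET replicon cells and read after 48 h.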

HCV polymerase = biological target: T1, HCV polymerase (Hepatitis C virus genotype 1b, UniProt Q9WMX2); test: Polymerase assay of Biological Example 1 (IC50 values of Table 3); type: biochemical; settings: IC50 values of Table 3, polymerase assay of Biological Example 1; read-out: NS5B-enzyme3
T1 construct: (His)6 (C); made in house; host or cells: XL-1 cells (E. coli, by own knowledge)

[2] = ET cells, luciferase activity 48 hours after compound

Row | SMILES | IC50 ([1]; between 100 nM and 5.0 uM) [nM] | IC50 (HCV polymerase) [nM] | IC50 [1, 2] [nM]
1 | O=C(O)c1sc(-c2ccccc2)cc1N1C(=O)CN(S(=O)(=O)c2ccc(-c3ccc(F)cc3F)nc2)C[C@H]1C1CCCCC1 [Compound 205, 3-{(R)-2-Cyclohexyl-4-[6-(2,4-difluoro-phenyl)-pyridine-3-sulfonyl]-6-oxo-piperazin-1-yl}-5-phenyl-thiophene-2-carboxylic acid] | 100 to 5000 | 4 | 
2 | O=C(O)c1sc(-c2ccccc2)cc1N1C(=O)CN(S(=O)(=O)c2ccc(-c3cncnc3)nc2)C[C@H]1C1CCCCC1 [Compound 206, 3-[(R)-2-Cyclohexyl-6-oxo-4-(6-pyrimidin-5-yl-pyridine-3-sulfonyl)-piperazin-1-yl]-5-phenyl-thiophene-2-carboxylic acid] | 100 to 5000 | 1 | 
3 | O=C(O)c1sc(-c2ccccc2)cc1N1C(=O)CN(S(=O)(=O)c2ccc(-c3ccc(CN4CCOCC4)cc3)nc2)C[C@H]1C1CCCCC1 [Compound 208, 3-{(R)-2-Cyclohexyl-4-[6-(4-morpholin-4-ylmethyl-phenyl)-pyridine-3-sulfonyl]-6-oxo-piperazin-1-yl}-5-phenyl-thiophene-2-carboxylic acid] |  | 1.4 | ≤ 100
4 | O=C(O)c1sc(-c2ccccc2)cc1N1C(=O)CN(S(=O)(=O)c2ccc(-c3ccn[nH]3)nc2)C[C@H]1C1CCCCC1 [Compound 209, 3-{(R)-2-Cyclohexyl-6-oxo-4-[6-(2H-pyrazol-3-yl)-pyridine-3-sulfonyl]-piperazin-1-yl}-5-phenyl-thiophene-2-carboxylic acid] | 100 to 5000 | 1 | 
5 | O=C(O)c1ccc(-c2ccc(S(=O)(=O)N3CC(=O)N(c4cc(-c5ccccc5)sc4C(=O)O)[C@H](C4CCCCC4)C3)cn2)s1 [Compound 210, 3-{(R)-4-[6-(5-Carboxy-thiophen-2-yl)-pyridine-3-sulfonyl]-2-cyclohexyl-6-oxo-piperazin-1-yl}-5-phenyl-thiophene-2-carboxylic acid] |  | 3 | ≥ 5000
6 | Cc1occc1-c1ccc(S(=O)(=O)N2CC(=O)N(c3cc(-c4ccccc4)sc3C(=O)O)[C@H](C3CCCCC3)C2)cn1 [Compound 211, 3-{(R)-2-Cyclohexyl-4-[6-(2-methyl-furan-3-yl)-pyridine-3-sulfonyl]-6-oxo-piperazin-1-yl}-5-phenyl-thiophene-2-carboxylic acid] | 100 to 5000 | 2 | 
7 | O=C(O)c1sc(-c2ccccc2)cc1N1C(=O)CN(S(=O)(=O)c2ccc(-c3ccc4c(c3)OCCCO4)nc2)C[C@H]1C1CCCCC1 [Compound 212, 3-{(R)-2-Cyclohexyl-4-[6-(3,4-dihydro-2H-benzo[b][1,4]dioxepin-7-yl)-pyridine-3-sulfonyl]-6-oxo-piperazin-1-yl}-5-phenyl-thiophene-2-carboxylic acid] |  | 2 | ≤ 100
8 | N#Cc1ccccc1-c1ccc(S(=O)(=O)N2CC(=O)N(c3cc(-c4ccccc4)sc3C(=O)O)[C@H](C3CCCCC3)C2)cn1 [Compound 213, 3-{(R)-4-[6-(2-Cyano-phenyl)-pyridine-3-sulfonyl]-2-cyclohexyl-6-oxo-piperazin-1-yl}-5-phenyl-thiophene-2-carboxylic acid] |  | 1 | ≤ 100
9 | O=C(O)c1sc(-c2ccccc2)cc1N1C(=O)CN(S(=O)(=O)c2ccc(-c3cccnc3)nc2)C[C@H]1C1CCCCC1 [Compound 214, 3-[(R)-4-([2,3′]Bipyridinyl-5-sulfonyl)-2-cyclohexyl-6-oxo-piperazin-1-yl]-5-phenyl-thiophene-2-carboxylic acid] | 100 to 5000 | 1 | 
10 | O=C(O)c1sc(-c2ccccc2)cc1N1C(=O)CN(S(=O)(=O)c2ccc(C3=CCCC3)nc2)C[C@H]1C1CCCCC1 [Compound 215, 3-[(R)-2-Cyclohexyl-4-(6-cyclopent-1-enyl-pyridine-3-sulfonyl)-6-oxo-piperazin-1-yl]-5-phenyl-thiophene-2-carboxylic acid] | 100 to 5000 | 2 | 
11 | O=C(O)c1sc(-c2ccccc2)cc1N1C(=O)CN(S(=O)(=O)c2ccc(N3CC4CCC(C3)O4)nc2)C[C@H]1C1CCCCC1 [Compound 216, 3-{(R)-2-Cyclohexyl-4-[6-(8-oxa-3-aza-bicyclo[3.2.1]oct-3-yl)-pyridine-3-sulfonyl]-6-oxo-piperazin-1-yl}-5-phenyl-thiophene-2-carboxylic acid] |  | 1 | ≤ 100
12 | O=C(O)c1sc(-c2ccccc2)cc1N1C(=O)CN(S(=O)(=O)c2ccc(N3CC4CC3CO4)nc2)C[C@H]1C1CCCCC1 (stereo partly drawn) [Compound 217, 3-{(R)-2-Cyclohexyl-4-[6-(2-oxa-5-aza-bicyclo[2.2.1]hept-5-yl)-pyridine-3-sulfonyl]-6-oxo-piperazin-1-yl}-5-phenyl-thiophene-2-carboxylic acid] |  | 1 | ≤ 100
13 | CCC1(CC)CN(c2ccc(S(=O)(=O)N3CC(=O)N(c4cc(-c5ccccc5)sc4C(=O)O)[C@H](C4CCCCC4)C3)cn2)CCO1 [Compound 218, 3-{(R)-2-Cyclohexyl-4-[6-(2,2-diethyl-morpholin-4-yl)-pyridine-3-sulfonyl]-6-oxo-piperazin-1-yl}-5-phenyl-thiophene-2-carboxylic acid] |  | 1 | ≤ 100
14 | CC(C)(C)C#Cc1cc(N2C(=O)CCC2C2CCCCC2)c(C(=O)O)s1 (stereo not drawn) [Compound 220, 3-(2-Cyclohexyl-5-oxo-pyrrolidin-1-yl)-5-(3,3-dimethyl-but-1-ynyl)-thiophene-2-carboxylic acid] | 100 to 5000 | 15 | 
15 | CC(C)S(=O)(=O)N1CC(=O)N(c2cc(C#CC(C)(C)C)sc2C(=O)O)[C@H](C2CCCCC2)C1 [Compound 221, 3-[(R)-2-Cyclohexyl-6-oxo-4-(propane-2-sulfonyl)-piperazin-1-yl]-5-(3,3-dimethyl-but-1-ynyl)-thiophene-2-carboxylic acid] | 100 to 5000 | 19 | 
16 | Cn1cc(-c2ccc(S(=O)(=O)N3CC(=O)N(c4cc(-c5ccccc5)sc4C(=O)O)[C@H](C4CCCCC4)C3)cn2)cn1 [Compound 222, 3-{(R)-2-Cyclohexyl-4-[6-(1-methyl-1H-pyrazol-4-yl)-pyridine-3-sulfonyl]-6-oxo-piperazin-1-yl}-5-phenyl-thiophene-2-carboxylic acid] |  | 2 | ≤ 100
17 | CC(C)(C)C#Cc1cc(N2C(=O)CN(S(=O)(=O)c3ccc(OC(F)(F)F)cc3)C[C@H]2C2CCCCC2)c(C(=O)O)s1 [Compound 223, 3-[(R)-2-Cyclohexyl-6-oxo-4-(4-trifluoromethoxy-benzenesulfonyl)-piperazin-1-yl]-5-(3,3-dimethyl-but-1-ynyl)-thiophene-2-carboxylic acid] | 100 to 5000 | 9 | 
18 | C[C@@H]1COCCN1c1ccc(S(=O)(=O)N2CC(=O)N(c3cc(-c4ccccc4)sc3C(=O)O)[C@H](C3CCCCC3)C2)cn1 [Compound 225, 3-{(R)-2-Cyclohexyl-4-[6-((R)-3-methyl-morpholin-4-yl)-pyridine-3-sulfonyl]-6-oxo-piperazin-1-yl}-5-phenyl-thiophene-2-carboxylic acid] |  | 1 | ≤ 100
19 | C[C@@H]1COCCN1c1ccc(S(=O)(=O)N2CC(=O)N(c3cc(-c4ccc(Cl)cc4)sc3C(=O)O)[C@H](C3CCCCC3)C2)cn1 [Compound 226, 5-(4-Chloro-phenyl)-3-{(R)-2-cyclohexyl-4-[6-((R)-3-methyl-morpholin-4-yl)-pyridine-3-sulfonyl]-6-oxo-piperazin-1-yl}-thiophene-2-carboxylic acid] |  | 9 | ≤ 100
20 | O=C(O)c1sc(-c2ccc(Cl)cc2)cc1N1C(=O)CN(S(=O)(=O)c2ccc(N3CC4CCC(C3)O4)nc2)C[C@H]1C1CCCCC1 [Compound 227, 5-(4-Chloro-phenyl)-3-{(R)-2-cyclohexyl-4-[6-(8-oxa-3-aza-bicyclo[3.2.1]oct-3-yl)-pyridine-3-sulfonyl]-6-oxo-piperazin-1-yl}-thiophene-2-carboxylic acid] |  | 1 | ≤ 100
21 | O=C(O)c1sc(-c2ccc(Cl)cc2)cc1N1C(=O)CN(S(=O)(=O)c2ccc(N3CC4CC3CO4)nc2)C[C@H]1C1CCCCC1 (stereo partly drawn) [Compound 229, 5-(4-Chloro-phenyl)-3-{(R)-2-cyclohexyl-4-[6-(2-oxa-5-aza-bicyclo[2.2.1]hept-5-yl)-pyridine-3-sulfonyl]-6-oxo-piperazin-1-yl}-thiophene-2-carboxylic acid] |  | 1 | ≤ 100
22 | CC(C)(C)C#Cc1cc(N2C(=O)CN(S(=O)(=O)c3ccc(C(F)(F)F)nc3)C[C@H]2C2CCCCC2)c(C(=O)O)s1 [Compound 230, 3-[(R)-2-Cyclohexyl-6-oxo-4-(6-trifluoromethyl-pyridine-3-sulfonyl)-piperazin-1-yl]-5-(3,3-dimethyl-but-1-ynyl)-thiophene-2-carboxylic acid] | 100 to 5000 | 6 | 
23 | O=C(O)c1sc(-c2ccc(Cl)cc2)cc1N1C(=O)CN(S(=O)(=O)c2ccc(N3CCCC3)cc2)C[C@H]1C1CCCCC1 [Compound 231, 5-(4-Chloro-phenyl)-3-[(R)-2-cyclohexyl-6-oxo-4-(4-pyrrolidin-1-yl-benzenesulfonyl)-piperazin-1-yl]-thiophene-2-carboxylic acid] |  | 1 | ≤ 100
24 | O=C(O)c1sc(-c2ccc(F)cc2)cc1N1C(=O)CN(S(=O)(=O)c2ccc(N3CCCC3)nc2)C[C@H]1C1CCCCC1 [Compound 232, 3-[(R)-2-Cyclohexyl-6-oxo-4-(6-pyrrolidin-1-yl-pyridine-3-sulfonyl)-piperazin-1-yl]-5-(4-fluoro-phenyl)-thiophene-2-carboxylic acid] |  | 1 | ≤ 100
